Earlier results as cited in patent US7575866B2, “Ligand/binding partner bio-labeling systems” (priority 2003, dated 2009).

Tests used:
[1] = biological target: T1, Mycobacterium avium DHFR (Mycobacterium avium, UniProt O30463)
T1 sequence (O30463 1-181): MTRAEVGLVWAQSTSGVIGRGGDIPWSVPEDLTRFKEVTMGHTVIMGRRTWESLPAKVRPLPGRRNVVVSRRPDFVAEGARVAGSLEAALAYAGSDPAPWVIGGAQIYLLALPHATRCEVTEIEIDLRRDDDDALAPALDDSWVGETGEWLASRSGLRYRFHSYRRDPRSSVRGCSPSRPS

[2] = system: DHFR
[3] = system: human cells
[4] = system: human leukocytes

2,4-diamino-5-[(2-methoxy-4-carboxybutyloxy)benzyl]pyrimidine
selective binding to Mycobacterium avium DHFR [1]: selectively bind

CCCCc1c(CN(C)c2ccc(C(=O)N[C@@H](CCC(=O)O)C(=O)O)cc2)cnc2nc(N)nc(N)c12 [5-butyl-5-deazamethotrexate]
inhibitory effect on DHFR lowered relative to MTX [2]: 17 fold

CN(Cc1cnc2nc(N)nc(N)c2n1)c1ccc(C(=O)N[C@@H](CCC(=O)O)C(=O)O)cc1 [MTX, Methotrexate]
extracellular concentration at which DNA damage has been observed [3]: 10 µM
concentration at which toxicity observed [4]: 2 µM
